Laboratory results published in patent US20240199534A1 (Mitochondria Emotion, Inc., priority 2021, published 2024).
Read-outs that look alike come from different tables or passages of the source. Values belong to the compound of their own block, whether it stands above or below them.

How the values were obtained:
[1] = In vivo pharmacokinetics IV and PO (Table 1A); set-up: species or system mouse; details: for Tmax: PO, mouse plasma
MFN2 = biological target: T1, MFN2 (Mus musculus, UniProt Q80U63); test: Mitofusin activation (MFN activity), EC50; type: cell-based; details: stereoisomeric configurations of Compound 2
T1 sequence (Q80U63 1-757): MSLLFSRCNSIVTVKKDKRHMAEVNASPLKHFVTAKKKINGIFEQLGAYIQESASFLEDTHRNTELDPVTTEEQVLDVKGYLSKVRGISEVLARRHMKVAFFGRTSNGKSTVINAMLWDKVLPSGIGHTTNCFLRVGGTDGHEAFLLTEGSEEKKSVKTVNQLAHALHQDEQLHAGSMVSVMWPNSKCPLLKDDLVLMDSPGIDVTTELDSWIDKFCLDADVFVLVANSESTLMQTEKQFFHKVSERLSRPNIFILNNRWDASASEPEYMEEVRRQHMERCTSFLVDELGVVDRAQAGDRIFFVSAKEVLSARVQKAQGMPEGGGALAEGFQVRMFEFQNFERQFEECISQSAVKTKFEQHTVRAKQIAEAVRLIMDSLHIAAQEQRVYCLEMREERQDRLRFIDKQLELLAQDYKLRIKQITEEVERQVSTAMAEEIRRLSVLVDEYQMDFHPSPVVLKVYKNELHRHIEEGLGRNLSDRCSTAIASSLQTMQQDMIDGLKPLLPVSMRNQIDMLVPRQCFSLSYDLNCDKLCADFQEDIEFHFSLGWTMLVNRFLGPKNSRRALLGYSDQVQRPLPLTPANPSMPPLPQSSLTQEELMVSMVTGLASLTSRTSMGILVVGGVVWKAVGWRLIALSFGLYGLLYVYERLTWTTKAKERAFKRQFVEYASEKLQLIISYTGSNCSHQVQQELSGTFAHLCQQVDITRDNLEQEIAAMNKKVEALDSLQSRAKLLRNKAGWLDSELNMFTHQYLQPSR
Protocol: Mitochondria were then stained with MitoTracker Orange (200 nM; M7510; Invitrogen, Carlsbad, CA, USA). Nuclei were stained with Hoescht (10 μg/ml; Invitrogen, Thermo Fisher Scientific Cat: #H3570). […] Response curves were interpolated using the sigmoidal model using Prism 8 software.
Testing details for the MFN activity and PAMPA assay are provided in U.S. Patent Applications 2020/034566 and 2020/0345669, incorporated herein by reference.

Vd ([1]; male, CD-1, mouse, plasma, iv, 10 mg/kg, read-out: Vdss): 0.6 L/kg
bioavailability ([1]; male, CD-1, mouse, plasma, po, 50 mg/kg): 59%
MRT ([1]; male, CD-1, mouse, plasma, single 50 mg/kg oral dose, read-out: mean tissue residence time (MRT)): 215 min
Tmax ([1]; male, CD-1, 50 mg/kg, read-out: Tmax): 30 min
SMILES: O=C(N[C@H]1CC[C@H](O)CC1)C1CC1CCCc1ccccc1 (mixture of isomers) [Compound 2, N-((1r,4r)-4-hydroxycyclohexyl)-2-(3-phenylpropyl)cyclopropane-1-carboxamide]

Tmax ([1]; 50 mg/kg): 30 min
SMILES: O=C(CCCCCc1ccccc1)N[C@H]1CC[C@H](O)CC1 [Compound 1, N-(trans-4-hydroxycyclohexyl)-6-phenylhexanamide, reference compound]

SMILES: O=C(N[C@H]1CC[C@H](O)CC1)[C@@H]1C[C@H]1CCCc1ccccc1 [Compound 2A, (1R,2R)-N-((1r,4R)-4-hydroxycyclohexyl)-2-(3-phenylpropyl)cyclopropane-1-carboxamide]
activity toward promoting mitofusin activation (MFN2): active toward promoting mitofusin activation
